Test: method code SF-AS, from PMID: 754638
Settings: not given

Going from `CCCS(=O)(=O)c1cc(OC)c(OC)c(OC)c1` to `CCS(=O)(=O)c1cc(OC)c(OC)c(OC)c1`, the logP falls from 1.56 to 1.05.

First: COc1cc(S(=O)(=O)CC(O)c2ccccc2)cc(OC)c1OC (centres undefined)
Second: COc1cc(S(=O)(=O)CCO)cc(OC)c1OC
The logP of the first is higher: 1.65 for the first, 0.18 for the second.

Going from `C=CCS(=O)(=O)c1cc(OC)c(OC)c(OC)c1` to `COc1cc(S(=O)(=O)CCC(C)C)cc(OC)c1OC`, the logP rises from 1.34 to 2.12.

With `COc1cc(S(=O)(=O)CCN2CCOCC2)cc(OC)c1OC` the logP was 1.29.

Same assay, conditions: pH 7.3

Going from `COc1cc(S(=O)(=O)CCN2CCCCC2)cc(OC)c1OC` to `CCCCN(C)CCS(=O)(=O)c1cc(OC)c(OC)c(OC)c1`, the logD rises from 1.6 to 2.05.

— the SangsterLogP compilation
